Reference: patent US12268739B2, “Use of toll-like receptor 2 (TLR-2) agonist for modulating human immune response” (Children's Medical Center Corporation, priority 2018, dated 2025)
Entries after “also recorded” stand apart in the source; their conditions may differ.

Columns and labels:
[1] = tested on: NF-κB reporter THP1 cells; experiment: NF-kB-induced luminescence HTS in THP1-Lucia cells (384-well); format: cell-based, human; conditions: ranked at 3.3 μM; ~200,000 compounds tested
Excerpt: HTS Overview: To identify immunomodulators/adjuvants that robustly activate human immune cells, ˜200,000 small molecules were screening in a THP1 cell-based assay. The chemical libraries screened included known bioactive and commercial libraries from various sources including commercial libraries such as ChemDiv, ChemBridge, and Asinex. All libraries were owned and provided by the Institute of Chemistry and Cell Biology (ICCB)—Longwood (Harvard Medical School). The project primary screen incorporated two distinct arms: a) a luciferase-based screen which corresponds to the relative activation of the NF-κB reporter; and b) a fluorescence-based screen, corresponding to the phenotypic adherence, a distinct marker of cell activation, of the human monocytic THP-1 cell lines. Described herein are small molecules identified in the screen that induce NF-kB activity based on a luciferase-based THP-1 cell screen.
(§1) THP-1 Cell Line and Culture Conditions. The THP1-Lucia™ cell line was obtained from Invivogen (San Diego, CA). THP1-Lucia cells, which are human monocytic cells derived from the blood of a child with leukemia, contain an NF-kB-inducible Luc reporter construct. This allows NF-kB activation to be measured by quantifying the luminescence from the secreted luciferase enzyme. THP1-Lucia cells were cultured in RPMI 1640 supplemented with 10% non-heat inactivated fetal bovine serum (FBS), 10 mM HEPES, 1.0 mM sodium pyruvate, 50 ug/ml Pen-Strep, and 100 ug/mL Normocin™. Once cultured, the cells were stored in a 37° C. incubator with 5% CO2 and a humidified atmosphere. Cells were passaged every 2-3 days and not allowed to exceed a concentration of 2.0×10^6 cells/ml media.
NF-kB-induced Luminescence Assay. THP1-Lucia cells between passage 15 and 18 and suspended in culture medium were dispensed into 384-well black clear-bottom plates (Corning 3712) at 30,000 cells/30 μl/well using a Combi liquid dispenser. To allow comparison to a benchmark small molecule with known immune stimulating activity, cells at the same concentration were stimulated with 50 μM R848, a TLR7/8 agonist, in 0.3% DMSO and added to every other well of column 24, which was left empty of cells, by multichannel pipette at the same volume. Five μl of 700 nM Phorbol myristate acetate (PMA) in THP1 culture media and 2.3% DMSO, a known peripheral blood cell mitogen, was added to every other well of column 23 by multichannel pipette (final concentration in well: 100 nM in 0.3% DMSO). Five μl of THP1 culture media with 2.3% DMSO was added to the remaining wells of column 23 by multichannel pipette (final concentration 0.3% DMSO). One hundred nl aliquots of library compounds diluted in 100% DMSO were transferred from their original 384-well plates to the assay plates using a Seiko pin transfer machine. Each library plate was pinned in duplicate, yielding two assay plates with identical conditions for comparison. Plates were then incubated for 24 hours at 37 C with 5% CO2 in humid conditions. Following incubation, 10 μL of supernatant was removed from each well and transferred to a white plate (Corning 3570) using a Vprep liquid transfer machine. 10 μL of recombinant Lucia protein (Invivogen) diluted 1:2000 in THP1 culture media was added to empty well 24P. Using a Combi liquid dispenser, 50 μL/well of Quanti-Luc substrate (Invivogen) diluted 1:3 in sterile water was added to the assay plate. Immediately after adding the substrate, the luminescence was read using a PerkinElmer Envision plate reader.

THP1-NF-κB cells = experiment: THP1-NF-κB cell stimulation for 24 hours, secreted luciferase luminescence; format: cell-based, human; conditions: for THP1 cells (relative luminescence units, N = 4) Comp at 25 uM / THP1 cells (relative luminescence units, N = 4) Comp at 100 uM: NF-κB-dependent luminescence, 24 hours; for THP1 cells (relative luminescence units, N = 4) Comp at 25 uM: compound at 25 uM; for THP1 cells (relative luminescence units, N = 4) Comp at 100 uM: compound at 100 uM
Description: as §1
(§2) PBMCs were isolated from blood using a Ficoll density gradient. PBMCs either used fresh or were stored at 5×10^7 cells per vial in 1 mL RPMI containing 20% autologous plasma and 10% DMSO at −80° C. until use. Stimulation plates were prepared by transferring 0.66 μl of DMSO-dissolved compounds (30 or 7.5 mM) to each well of a round bottom 96-well plate. PBMCs isolated from human adult donors or THP1-NF-κB cells were resuspended at a concentration of 10^5 cells/200 μl of RPMI supplemented with 10% of platelet-poor plasma or THP1 culture medium, respectively. 200 μl of the cell suspension were transferred to each well resulting in a final compound concentration of 100 or 25 μM. After 24 hours of incubation (37° C., 5% CO2), plates were spun down (500×g, room temperature, 5 minutes) and supernatants were harvested for further analysis.

human TLR2 [2] = biological target: T1, human TLR2 (Homo sapiens, UniProt O60603); experiment: HEK-Blue human TLR cell screening (NF-κB SEAP reporter); format: cell-based; conditions: compounds at 10 μM, fold change over negative controls
T1 construct: expressed in transfected cells; host or cells: HEK-Blue (human embryonic kidney) cells with an NF-kB-inducible SEAP reporter
T1 sequence (O60603 21-784): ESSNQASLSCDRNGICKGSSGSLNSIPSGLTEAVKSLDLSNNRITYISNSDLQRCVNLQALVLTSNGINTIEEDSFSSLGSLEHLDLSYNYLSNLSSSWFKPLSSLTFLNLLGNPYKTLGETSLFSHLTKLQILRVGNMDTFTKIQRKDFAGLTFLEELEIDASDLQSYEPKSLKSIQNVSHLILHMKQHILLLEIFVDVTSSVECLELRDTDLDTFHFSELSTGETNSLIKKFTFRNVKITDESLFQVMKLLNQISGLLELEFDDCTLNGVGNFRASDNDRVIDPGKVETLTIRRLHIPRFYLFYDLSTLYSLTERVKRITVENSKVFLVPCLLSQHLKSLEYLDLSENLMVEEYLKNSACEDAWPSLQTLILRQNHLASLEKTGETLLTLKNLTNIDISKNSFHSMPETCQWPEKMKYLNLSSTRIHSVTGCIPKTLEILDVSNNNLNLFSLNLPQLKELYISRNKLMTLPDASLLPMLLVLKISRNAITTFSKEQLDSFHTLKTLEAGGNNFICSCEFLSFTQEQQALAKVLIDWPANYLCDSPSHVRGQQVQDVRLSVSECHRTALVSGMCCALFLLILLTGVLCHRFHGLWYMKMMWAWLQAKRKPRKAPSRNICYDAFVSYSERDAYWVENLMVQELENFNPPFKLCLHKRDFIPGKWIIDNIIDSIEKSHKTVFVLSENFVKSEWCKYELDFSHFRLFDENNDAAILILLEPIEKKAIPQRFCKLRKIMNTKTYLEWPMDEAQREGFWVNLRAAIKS
Description: HEK cell screening. Human embryonic kidney (HEK)-Blue cell lines expressing human TLRs (hTLRs) and a secreted embryonic alkaline phosphatase (SEAP) reporter under the control of an NF-κB-inducible promoter were cultured in 96-well plates (50,000-75,000 cells/200 μl/well) and stimulated with the indicated compounds at 10 µM or positive controls. The media added to the wells is designed for detection of NF-κB-induced SEAP expression. After 16-24 hours of incubation optical density (OD) was read at 650 nm on a Molecular Devices SpectraMax 340PC absorbance detector. Positive controls employed in this assay were: heat-killed Listeria monocytogenes (1×10^8 cells/ml) for hTLR2, Poly (I:C) HMW (1 μg/ml) for hTLR3, ? E. coli K12 LPS (100 ng/ml) for hTLR4, S. typhimurium flagellin (100 ng/ml) for hTLR5, CL307 (1 μg/ml) for hTLR7, CL075 (1 μg/ml) for hTLR8 and CpG ODN 2006 (1 μg/ml) for hTLR9.

human adult PBMCs = experiment: Cytokine production by stimulated human adult PBMCs (ELISA / multiplex); format: cell-based; conditions: for Adult PBMCs (median ng/ml) IL-6 (N = 7) / Adult PBMCs (median ng/ml) TNFa (N = 13): human adult PBMCs, compounds at 100 µM (FIG. 7), ELISA
Description: ELISAs and Multiplex-Analyte Assays. Supernatants derived from human PBMCs stimulations were assayed by ELISA for TNF and IL-6 (ThermoFisher Scientific; Waltham, MA, USA). Cytokine and chemokine expression profiles (e.g., IFNγ, IL-9, IL-10, IL-12 (p70), IL-13, IL-1β, IL-23, IL-27, IL-28A, IL-33, IL-6, MIP-3α/CCL20, and TNF) in cell culture supernatants were measured using a customized Milliplex® Human Th17 Magnetic Bead Panel according to the manufacturer's instructions (Millipore, Chicago, IL, USA). Assays were read and analyzed on the Luminex® 100/200TM System and xPOTENT® software (Luminex, Austin, TX). A minimum threshold was set at the minimum detectable concentration for each individual assay, defined as three standard deviations above the mean background.
as §2, with “Stimulation plates were prepared by transferring 0.66 μl of DMSO-dissolved compounds (30 or 7.5 mM) to each well of a round bottom 96-well plate.” left out, “200 μl of the cell suspension were transferred to each well resulting in a final compound concentration of 100 or 25 μM.” left out

human TLR2 [3] = biological target: T1, human TLR2; experiment: HEK293 assay for human TLR2 selectivity (NF-κB/SEAP); format: cell-based; conditions: 18-24 hours stimulation, titratable
Description: (§3) HEK293 assay for human TLR2 and TLR8 selectivity: Human embryonic kidney (HEK) 293 cells expressing human TLR2 or TLR8 with an NF-κB-responsive secreted embryonic alkaline phosphatase (SEAP) reporter gene were obtained from Invivogen (San Diego, CA). Cells were maintained in RPMI or DMEM with 10% heat inactivated-FBS and selection antibiotics per the manufacturer's instructions. Cells were plated at 5×10^5 cells/96-well and stimulated with indicated agonist(s) for 24 hours. Supernatants were harvested and analyzed for NF-κB/SEAP activation using the QuantiBlue kit (Invivogen). Values are expressed as fold change in OD650 over vehicle-only treated samples.

human TLR8 = biological target: T2, human TLR8 (Homo sapiens, UniProt Q9NR97); experiment: HEK293 assay for human TLR8 selectivity (NF-κB/SEAP); format: cell-based; conditions: selectivity counter-assay
T2 construct: host or cells: HEK293 cells with an NF-kB-responsive SEAP reporter gene
T2 sequence (Q9NR97 27-1041): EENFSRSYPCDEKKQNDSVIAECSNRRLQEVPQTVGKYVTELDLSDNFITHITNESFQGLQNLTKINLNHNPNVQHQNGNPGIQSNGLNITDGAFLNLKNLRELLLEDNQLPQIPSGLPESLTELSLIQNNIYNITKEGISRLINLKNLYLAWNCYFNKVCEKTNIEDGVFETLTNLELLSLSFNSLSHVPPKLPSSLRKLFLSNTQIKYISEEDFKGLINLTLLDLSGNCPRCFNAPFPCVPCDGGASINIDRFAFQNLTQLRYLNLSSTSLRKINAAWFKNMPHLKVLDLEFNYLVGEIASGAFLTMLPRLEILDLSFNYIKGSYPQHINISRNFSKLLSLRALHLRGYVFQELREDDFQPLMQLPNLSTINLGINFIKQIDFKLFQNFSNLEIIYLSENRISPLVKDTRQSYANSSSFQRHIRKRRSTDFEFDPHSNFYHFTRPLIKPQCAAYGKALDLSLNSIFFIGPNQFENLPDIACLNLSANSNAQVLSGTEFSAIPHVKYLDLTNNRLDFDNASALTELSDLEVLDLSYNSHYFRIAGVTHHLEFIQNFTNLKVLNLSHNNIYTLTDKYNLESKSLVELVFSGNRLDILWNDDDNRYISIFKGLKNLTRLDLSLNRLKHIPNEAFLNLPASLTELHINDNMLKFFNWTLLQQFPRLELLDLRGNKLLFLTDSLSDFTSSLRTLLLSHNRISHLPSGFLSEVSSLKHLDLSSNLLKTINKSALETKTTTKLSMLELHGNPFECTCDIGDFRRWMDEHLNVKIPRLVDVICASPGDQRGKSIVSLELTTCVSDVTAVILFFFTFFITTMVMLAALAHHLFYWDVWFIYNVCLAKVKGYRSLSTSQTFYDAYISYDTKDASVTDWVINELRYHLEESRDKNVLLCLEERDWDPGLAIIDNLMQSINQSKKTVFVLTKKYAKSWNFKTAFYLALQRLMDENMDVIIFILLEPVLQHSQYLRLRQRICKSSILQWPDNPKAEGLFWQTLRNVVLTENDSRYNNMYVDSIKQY
Description: as §3

Structure (SMILES) | Efficacy in activating NF-κB in THP1 cells (screening hits) [1] | Activation of THP1 cells (THP1-NF-κB cells; 384 and 96 well assay) | Activation of human TLR2 (NF-κB activation in TLR-expressing HEK-Blue cells) (human TLR2 [2]) | Activation of human adult PBMCs (cytokine levels by multiplex assay) (human adult PBMCs; 384-well plates, 24 hours, 0.05-33 μM) | Activation of human adult PBMCs (human adult PBMCs; 384 and 96 well assay) | THP1 cells (relative luminescence units, N = 4) Comp at 25 uM (THP1-NF-κB cells) | THP1 cells (relative luminescence units, N = 4) Comp at 100 uM (THP1-NF-κB cells) | Adult PBMCs (median ng/ml) IL-6 (N = 7) (human adult PBMCs; 24 hours) [ng/mL] | Adult PBMCs (median ng/ml) TNFa (N = 13) (human adult PBMCs; 24 hours) [ng/mL] | TLR2 activation in HEK TLR2 cells (SEAP) (human TLR2 [3]) | TLR8 induction in HEK TLR8 cells (SEAP) (human TLR8)
COC(=O)c1c(NC(=O)CN2CCC3(CC2)OCCO3)sc2c1CCCC2 [Compound 004] | most effective NF-κB activators; also recorded: most effective NF-kB activators | induced activation of THP1 cells | activate human TLR2; also recorded: activated the human TLR2-expressing human embryonic kidney (HEK)-Blue cell line | activates human adult PBMCs in a concentration-dependent manner | induced activation |  |  |  |  |  | 
CCOC(=O)c1c(NC(=S)Nc2ccccc2OC)sc2c1CC(C)(C)OC2 [Compound 070] | most effective |  | activate human TLR2 |  |  |  |  |  |  |  | 
CNC(=O)c1c(NC(=O)c2ccc(S(=O)(=O)N(C)C)cc2)sc2c1CCCC2 [Compound 80.3] |  |  |  |  |  | 2835 relative luminescence units | 3630 relative luminescence units | 0.008 | 0.008 | induced TLR2 specific activation | without induction of TLR8
CNC(=O)c1c(NC(=O)c2ccc(S(=O)(=O)N3CCCC3)cc2)sc2c1CCC2 [Compound 80.10] |  |  |  |  |  | 3576 relative luminescence units | 4814 relative luminescence units | 0.012 | 0.008 | induced TLR2 specific activation | without induction of TLR8
CNC(=O)c1c(NC(=O)c2ccc(S(=O)(=O)N(C)C)cc2)sc(C)c1C [Compound 80.15] |  |  |  |  |  | 6369 relative luminescence units | 9715 relative luminescence units | 0.008 | 0.0225 | induced TLR2 specific activation | without induction of TLR8
